Results as given in US9266834B2, “1, 4-disubstituted 3-cyano-pyridone derivatives and their use as positive allosteric modulators of MGLUR2-receptors” (JANSSEN PHARMACEUTICALS, INC., priority 2006, dated 2016).

Biological target: T1, human mGluR2 receptor (Homo sapiens, UniProt Q14416)
T1 construct: expressed in transfected cells; host or cells: CHO cells (membrane preparation)
Assay: [35S]GTPγS binding assay (GTPγS-PAM): positive allosteric modulation in presence of glutamate at EC25, membranes from transfected CHO cells
Format: biochemical
Settings: in presence of mGluR2 agonist glutamate at predetermined EC25 concentration, averages of duplicate values of 11-concentration response curves, read-out: GTPgS - hR2 PAM pEC50 (converted)
How it was run: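 Membranes came from butyrate-stimulated CHO cells expressing human mGluR2, used at 15 μg/well in HEPES pH 7.4 with 100 mM NaCl, 3 mM MgCl2, 50 μM GDP and saponin. Compound (0.3 nM-50 μM, 11 concentrations) plus glutamate at EC25 was preincubated 30 min at 30° C., then 0.1 nM [35S]GTPγS was added for 30 min. Filter-bound radioactivity was counted, nonspecific binding was taken with 10 μM GTP, and curves were fitted by four-parameter logistic.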

T1 sequence (Q14416 19-872): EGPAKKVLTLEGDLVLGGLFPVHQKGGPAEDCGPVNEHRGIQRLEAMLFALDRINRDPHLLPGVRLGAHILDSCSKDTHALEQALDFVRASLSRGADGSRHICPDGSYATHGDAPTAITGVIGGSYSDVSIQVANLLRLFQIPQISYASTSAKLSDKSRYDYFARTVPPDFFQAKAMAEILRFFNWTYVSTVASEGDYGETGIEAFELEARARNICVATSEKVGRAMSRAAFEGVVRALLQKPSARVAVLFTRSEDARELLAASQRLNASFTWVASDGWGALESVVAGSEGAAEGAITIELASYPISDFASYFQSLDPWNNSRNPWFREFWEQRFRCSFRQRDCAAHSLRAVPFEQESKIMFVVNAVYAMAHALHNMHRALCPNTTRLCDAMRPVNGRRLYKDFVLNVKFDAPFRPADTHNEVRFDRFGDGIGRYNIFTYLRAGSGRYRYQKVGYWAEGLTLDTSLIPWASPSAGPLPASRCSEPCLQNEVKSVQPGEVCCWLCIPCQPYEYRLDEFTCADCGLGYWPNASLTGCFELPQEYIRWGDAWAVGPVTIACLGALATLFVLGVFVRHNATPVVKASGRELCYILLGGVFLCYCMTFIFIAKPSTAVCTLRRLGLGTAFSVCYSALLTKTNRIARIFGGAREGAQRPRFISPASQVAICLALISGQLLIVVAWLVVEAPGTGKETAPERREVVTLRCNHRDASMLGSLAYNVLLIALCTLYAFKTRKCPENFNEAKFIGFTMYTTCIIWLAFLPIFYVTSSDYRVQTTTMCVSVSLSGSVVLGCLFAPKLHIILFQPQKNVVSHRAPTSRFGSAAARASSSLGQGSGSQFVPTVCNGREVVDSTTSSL

| SMILES | EC50 [µM] |
| --- | --- |
| N#Cc1c(-c2ccc(OC(F)(F)F)cc2)ccn(CC2CCCC2)c1=O [1-007] | 0.398 |
| N#Cc1c(-c2cccs2)ccn(CC2CCCCC2)c1=O [1-008] | 0.251 |
| CCCCn1ccc(N2CCC(Oc3ccc(C#N)cc3)CC2)c(C#N)c1=O [4-009] | 0.501 |
| CC(C)CCn1ccc(N2CCC(C(F)(F)F)CC2)c(C#N)c1=O [4-010] | 2 |
| CC(C)CCn1ccc(N2CCCC(c3ccccc3)C2)c(C#N)c1=O (stereo not drawn) [4-013] | 2 |
| CC(C)CCn1ccc(N2CCC(c3ccccc3)CC2)c(C#N)c1=O [4-014] | 0.0631 |
| CC(C)CCn1ccc(N2CCC(Cc3ccccc3)CC2)c(C#N)c1=O [4-015] | 0.1 |
| Cc1ccc(OC2CCN(c3ccn(CCC(C)C)c(=O)c3C#N)CC2)cc1 [4-017] | 0.126 |
| CC(C)CCn1ccc(N2CCC(Oc3ccc(F)cc3)CC2)c(C#N)c1=O [4-018] | 0.501 |
| CC(C)CCn1ccc(N2CCC(OCc3cccc(C(F)(F)F)c3)CC2)c(C#N)c1=O [4-020] | 0.126 |
| CCOc1ccccc1OC1CCN(c2ccn(CCC(C)C)c(=O)c2C#N)CC1 [4-021] | 0.2 |
| CC(C)CCn1ccc(N2CCC(OCc3ccc(OC(F)(F)F)cc3)CC2)c(C#N)c1=O [4-022] | 0.0501 |
| CC(C)CCn1ccc(N2CCCC(Nc3ccccc3)C2)c(C#N)c1=O (stereo not drawn) [4-023] | 5.01 |
| CC(C)CCn1ccc(N2CCC(NCc3cccc(C(F)(F)F)c3)CC2)c(C#N)c1=O [4-024] | 6.31 |
| CC(C)CCn1ccc(N2CCC(N(C)Cc3ccccc3)CC2)c(C#N)c1=O [4-026] | 1.58 |
| CC(C)CCn1ccc(N2CCC(N(C)Cc3cccc(C(F)(F)F)c3)CC2)c(C#N)c1=O [4-028] | 0.1 |
| CC(C)CCn1ccc(N2CCC(CN(C)Cc3ccc(F)cc3)CC2)c(C#N)c1=O [4-030] | 1.26 |

Continued, values first:

| EC50 [µM] | SMILES |
| --- | --- |
| 0.398 | CC(C)CCn1ccc(N2CCC(N(C)CCc3cccc(C(F)(F)F)c3)CC2)c(C#N)c1=O [4-032] |
| 0.1 | CC(C)CCn1ccc(N2CCC(n3ccc4ccccc43)CC2)c(C#N)c1=O [4-035] |
| 0.126 | CC(C)CCn1ccc(N2CCC(c3noc(-c4ccccc4)n3)CC2)c(C#N)c1=O [4-041] |
| 2.51 | CC(C)CCn1ccc(N2CCC(c3ccccc3)(N3CCOCC3)CC2)c(C#N)c1=O [4-044] |
| 0.126 | COC1(c2ccccc2)CCN(c2ccn(CCC(C)C)c(=O)c2C#N)CC1 [4-045] |
| 2 | N#Cc1c(N2CCC(c3ccccc3)CC2)ccn(CC2CCCCO2)c1=O (stereo not drawn) [4-048] |
| 0.501 | N#Cc1c(N2CCC(N3CCc4ccccc4C3)CC2)ccn(Cc2ccc(OC(F)(F)F)cc2)c1=O [4-051] |
| 0.631 | Cc1cc(OCC2CCN(c3ccn(Cc4ccc(OC(F)(F)F)cc4)c(=O)c3C#N)CC2)ccn1 [4-052] |
| 3.16 | Cc1ccc(C2(O)CCN(c3ccn(Cc4ccc(OC(F)(F)F)cc4)c(=O)c3C#N)CC2)cn1 [4-053] |
| 5.01 | CN(Cc1ccccc1)C1CCN(c2ccn(Cc3ccc(F)cc3)c(=O)c2C#N)CC1 [4-056] |
| 0.251 | CN(Cc1cccc(C(F)(F)F)c1)C1CCN(c2ccn(Cc3ccc(F)cc3)c(=O)c2C#N)CC1 [4-058] |
| 5.01 | N#Cc1c(N2CCC(O)(c3cccnc3)CC2)ccn(Cc2ccc(OC(F)(F)F)cc2)c1=O [4-063] |
| 0.0316 | CN(Cc1cccc(C(F)(F)F)c1)C1CCN(c2ccn(CCOc3ccccc3)c(=O)c2C#N)CC1 [4-065] |
| 0.0316 | N#Cc1c(N2CCC(c3ccccc3)CC2)ccn(CCOc2ccccc2)c1=O [4-066] |
| 0.251 | CC(C)CCn1ccc(N2CCc3ccccc3C2)c(C#N)c1=O [5-003] |
| 5.01 | CC(C)CCn1ccc(N2C[C@@H]3C[C@H]2CN3Cc2ccccc2)c(C#N)c1=O [5-004] |
| 1.26 | CC(C)CCn1ccc(C2CCN(Cc3ccccc3)C2)c(C#N)c1=O (stereo not drawn) [5-007] |
| 2 | CC(C)CCn1ccc(-c2ccc3c(c2)CCN3)c(C#N)c1=O [5-014] |
| 1.58 | CC(=O)N1CCc2cc(-c3ccn(CCC(C)C)c(=O)c3C#N)ccc21 [5-015] |

| EC50 [µM] | SMILES |
| --- | --- |
| 0.251 | CC(C)CCn1ccc(-c2ccc3[nH]ccc3c2)c(C#N)c1=O [5-016] |
| 0.794 | CC(C)CCn1ccc(-c2cccc3[nH]ccc23)c(C#N)c1=O [5-017] |
| 0.0501 | CC(C)CCn1ccc(-c2ccc3c(ccn3-c3ccccc3)c2)c(C#N)c1=O [5-019] |
| 1.58 | CC(C)CCn1ccc(-c2ccc3[nH]ncc3c2)c(C#N)c1=O [5-021] |
| 0.794 | CCCCn1ccc(-c2ccc3c(cnn3Cc3ccccn3)c2)c(C#N)c1=O [5-023] |
| 0.398 | CC(C)CCn1ccc(-c2ccc3c(cnn3Cc3ccncc3)c2)c(C#N)c1=O [5-025] |
| 0.316 | Cc1c(-c2ccn(CCC(C)C)c(=O)c2C#N)cnn1-c1ccccc1 [5-027] |
| 0.316 | Cc1nc(-c2ccccc2)sc1-c1ccn(CCC(C)C)c(=O)c1C#N [5-028] |
| 6.31 | CC(C)CCn1ccc(N2CCOc3ccccc32)c(C#N)c1=O [5-030] |
| 1.26 | COc1cc2c(cc1OC)CN(c1ccn(CCC(C)C)c(=O)c1C#N)CC2 [5-032] |
| 0.0398 | CC(C)CCn1ccc(N2CCC3(CCc4ccccc43)CC2)c(C#N)c1=O [5-033] |
| 0.398 | CC(C)CCn1ccc(N2CCC3(CCN(c4ncccn4)CC3)CC2)c(C#N)c1=O [5-034] |
| 0.251 | CC(C)CCn1ccc(N2CCC3(CC2)COc2ccccc2O3)c(C#N)c1=O [5-036] |
| 0.2 | CC(C)CCn1ccc(N2CCc3c(sc4ccc(Cl)cc34)C2)c(C#N)c1=O [5-042] |
| 1 | CC(C)CCn1ccc(N2CCCN(c3ccccc3)CC2)c(C#N)c1=O [5-043] |
| 1 | COc1ccccc1N1CCCN(c2ccn(CCC(C)C)c(=O)c2C#N)CC1 [5-044] |
| 3.98 | Cc1onc(-c2ccccc2)c1COc1ccn(CCC(C)C)c(=O)c1C#N [5-045] |
| 1.58 | N#Cc1c(C#Cc2ccncc2)ccn(CC2CCCCC2)c1=O [5-049] |

Test system: not given
Assay: not given
Settings: not given

| SMILES | melting point [°C] |
| --- | --- |
| N#Cc1c(-c2ccc(OC(F)(F)F)cc2)ccn(CC2CCCC2)c1=O [1-007] | 159 |
| N#Cc1c(-c2cccs2)ccn(CC2CCCCC2)c1=O [1-008] | 148 |
| CCCn1ccc(-c2cccs2)c(C#N)c1=O [1-050] | 135 |
| CC(C)CCn1ccc(-c2ccccc2)c(C#N)c1=O [1-084] | 142 |
| CC(C)CCn1ccc(-c2ccc(CO)cc2)c(C#N)c1=O [1-098] | 145 |
| CNC(=O)COc1ccc(-c2ccn(CCC(C)C)c(=O)c2C#N)cc1 [1-127] | 156 |
| CC(=O)NCc1cccc(-c2ccn(CCC(C)C)c(=O)c2C#N)c1 [1-178] | 157 |
| CC(C)CCn1ccc(-c2ccc(C(=O)NCc3ccncc3)cc2)c(C#N)c1=O [1-213] | 96 |
| CC(C)CCn1ccc(-c2ccc(CN3CCOCC3)cc2)c(C#N)c1=O [1-229] | 148 |
| CC(C)CCn1ccc(-c2ccc(-n3ccnc3)cc2)c(C#N)c1=O [1-235] | 151 |
| CC(C)CCn1ccc(-c2ccc(CCC(=O)O)cc2)c(C#N)c1=O [1-240] | 169 |
| CC(C)CCn1ccc(OCCOCc2ccccc2)c(C#N)c1=O [1-281] | 83 |
| CC(C)CCn1ccc(OCCN2CCN(c3ccccn3)CC2)c(C#N)c1=O [2-036] | 159 |

Other lines, results leading:

| melting point [°C] | SMILES |
| --- | --- |
| 128 | N#Cc1c(N2CCC(c3ccccc3)CC2)ccn(CC2CC2)c1=O [4-047, 3-cyano-1-cyclopropylmethyl-4-(4-phenyl-piperidin-1-yl)-pyridine-2(1H)-one] |
| 234 | CC(C)CCn1ccc(-n2ncc3ccccc32)c(C#N)c1=O [5-029] |
